Read-outs that look alike come from different tables or passages of the source. One block for each compound: values may come before it.
Columns and labels:
HL-60 cells [1] = assay: Mitochondrial membrane potential measurement; assay type: cell-based, Human; details: HL-60, 10 μmol/L, JC-1, from 6 h
HL-60 cells [2] = assay: Cell cycle analysis by flow cytometry; assay type: cell-based, Human
HL-60 cells [3] = assay: LDH release assay; assay type: cell-based, Human
VEGFR1 = VEGFR1 (Homo sapiens, UniProt P17948); assay: Radioactive filter binding kinase assay, VEGFR1; assay type: biochemical
Chain of VEGFR1 (P17948 27-1338, species assumed): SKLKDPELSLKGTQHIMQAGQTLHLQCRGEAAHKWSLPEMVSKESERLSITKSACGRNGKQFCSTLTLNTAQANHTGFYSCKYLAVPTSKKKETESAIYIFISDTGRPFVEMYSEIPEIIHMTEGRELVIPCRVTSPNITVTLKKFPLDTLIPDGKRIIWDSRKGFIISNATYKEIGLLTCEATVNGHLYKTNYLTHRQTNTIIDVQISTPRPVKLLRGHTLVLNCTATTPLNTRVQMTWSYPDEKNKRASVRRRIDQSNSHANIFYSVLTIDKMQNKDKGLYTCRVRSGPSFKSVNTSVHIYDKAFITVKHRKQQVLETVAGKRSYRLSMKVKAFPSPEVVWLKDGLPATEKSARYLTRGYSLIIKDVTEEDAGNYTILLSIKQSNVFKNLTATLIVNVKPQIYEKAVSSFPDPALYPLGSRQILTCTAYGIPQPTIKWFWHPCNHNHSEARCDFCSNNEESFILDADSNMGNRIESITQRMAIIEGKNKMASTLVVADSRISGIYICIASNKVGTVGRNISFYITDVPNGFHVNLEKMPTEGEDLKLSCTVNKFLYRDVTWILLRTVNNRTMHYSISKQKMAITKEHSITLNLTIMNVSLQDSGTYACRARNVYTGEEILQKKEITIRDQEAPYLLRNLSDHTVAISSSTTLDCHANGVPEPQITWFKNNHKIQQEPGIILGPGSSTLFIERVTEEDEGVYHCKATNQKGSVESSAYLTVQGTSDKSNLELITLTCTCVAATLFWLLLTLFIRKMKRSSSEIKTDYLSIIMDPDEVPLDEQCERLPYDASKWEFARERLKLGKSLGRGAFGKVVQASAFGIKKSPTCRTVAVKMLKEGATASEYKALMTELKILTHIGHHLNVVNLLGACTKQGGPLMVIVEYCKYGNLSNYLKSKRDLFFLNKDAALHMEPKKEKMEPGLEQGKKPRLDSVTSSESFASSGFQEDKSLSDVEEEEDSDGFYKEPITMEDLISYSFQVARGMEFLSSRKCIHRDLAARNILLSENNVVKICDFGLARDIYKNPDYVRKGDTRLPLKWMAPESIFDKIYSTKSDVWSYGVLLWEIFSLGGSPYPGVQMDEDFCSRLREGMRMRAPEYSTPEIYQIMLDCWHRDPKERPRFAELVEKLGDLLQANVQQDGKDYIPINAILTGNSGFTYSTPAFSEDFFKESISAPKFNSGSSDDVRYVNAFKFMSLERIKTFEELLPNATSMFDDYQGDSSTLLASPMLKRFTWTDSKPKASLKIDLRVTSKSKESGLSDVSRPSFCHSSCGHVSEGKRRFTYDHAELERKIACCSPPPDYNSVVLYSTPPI

MNK2 = MNK2 (Homo sapiens, UniProt Q9HBH9); assay: Radioactive filter binding kinase assay, MNK2; details: read-out: percent inhibition MNK2
Chain of MNK2 (Q9HBH9 whole entry, species assumed): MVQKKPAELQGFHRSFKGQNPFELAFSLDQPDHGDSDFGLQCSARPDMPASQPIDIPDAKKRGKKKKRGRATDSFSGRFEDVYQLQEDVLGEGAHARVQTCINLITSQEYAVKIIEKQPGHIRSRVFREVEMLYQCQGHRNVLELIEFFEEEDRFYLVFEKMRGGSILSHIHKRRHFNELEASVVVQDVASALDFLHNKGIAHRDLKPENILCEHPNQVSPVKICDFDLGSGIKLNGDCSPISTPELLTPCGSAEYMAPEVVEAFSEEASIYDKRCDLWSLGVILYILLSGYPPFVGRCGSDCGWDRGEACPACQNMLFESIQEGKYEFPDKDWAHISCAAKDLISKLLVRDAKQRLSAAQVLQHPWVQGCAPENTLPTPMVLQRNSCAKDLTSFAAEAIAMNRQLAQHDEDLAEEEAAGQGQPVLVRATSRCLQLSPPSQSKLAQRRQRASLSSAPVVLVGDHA

HL-60 cells [4] = assay: Drug accumulation assay; assay type: cell-based, Human; details: HL-60, 2 h incubation, emission 446 nm
CHK2 = CHK2 (Homo sapiens, UniProt O96017); assay: Radioactive filter binding kinase assay, CHK2; assay type: biochemical
Chain of CHK2 (O96017 whole entry, species assumed): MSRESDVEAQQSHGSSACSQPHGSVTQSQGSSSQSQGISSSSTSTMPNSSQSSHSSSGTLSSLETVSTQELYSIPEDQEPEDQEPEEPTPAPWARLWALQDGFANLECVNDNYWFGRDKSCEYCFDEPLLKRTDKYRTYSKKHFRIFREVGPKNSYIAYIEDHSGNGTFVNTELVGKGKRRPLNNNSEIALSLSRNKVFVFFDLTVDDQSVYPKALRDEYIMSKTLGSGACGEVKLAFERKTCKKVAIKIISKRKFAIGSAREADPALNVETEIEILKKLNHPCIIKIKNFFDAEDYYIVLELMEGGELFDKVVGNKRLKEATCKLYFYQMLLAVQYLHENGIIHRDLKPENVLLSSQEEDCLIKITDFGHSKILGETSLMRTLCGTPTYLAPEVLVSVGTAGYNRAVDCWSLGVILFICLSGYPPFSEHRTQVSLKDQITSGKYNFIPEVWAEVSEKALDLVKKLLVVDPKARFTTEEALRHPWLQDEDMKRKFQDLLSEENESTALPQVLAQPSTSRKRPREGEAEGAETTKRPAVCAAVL

caspase-3 = assay: Caspase-3 colorimetric activity assay; assay type: cell-based, Human; details: HL-60, 10 μmol/L, 48 h
MOLT-4 cells = MOLT-4 cells ref 16; cited from earlier work
Aurora B = Aurora B (Homo sapiens, UniProt Q96GD4); assay: Radioactive filter binding kinase assay, Aurora B; details: read-out: percent inhibition Aurora B
Chain of Aurora B (Q96GD4 whole entry): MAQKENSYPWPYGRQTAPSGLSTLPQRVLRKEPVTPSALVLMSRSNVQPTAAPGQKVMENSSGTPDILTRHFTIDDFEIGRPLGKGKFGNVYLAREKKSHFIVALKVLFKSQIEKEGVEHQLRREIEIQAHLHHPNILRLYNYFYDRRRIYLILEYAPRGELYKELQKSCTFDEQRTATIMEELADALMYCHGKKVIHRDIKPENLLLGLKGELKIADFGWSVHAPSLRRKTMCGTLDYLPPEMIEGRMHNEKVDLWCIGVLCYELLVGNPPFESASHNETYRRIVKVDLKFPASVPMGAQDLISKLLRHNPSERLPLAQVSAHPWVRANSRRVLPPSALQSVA

HL-60 cells [5] = assay: Annexin V-FITC/propidium iodide labeling, confocal imaging; assay type: cell-based, Human; details: HL-60, 5 and 10 μmol/L, 48 h
[6] = read-out: IC50 VEGFR1, mean±SD (n=3)
[7] = read-out: IC50 CHK2, mean±SD (n=3)

activity at 1 µM (VEGFR1; read-out: percent inhibition VEGFR1): 44%
activity at 1 µM (MNK2): 79%
activity at 1 µM (CHK2; read-out: percent inhibition CHK2): 40%
activity at 1 µM (Aurora B): 74%
Compound: CCCCNc1ncnc2c1sc1nc3ccccc3cc12 [BPTQ, 4-butylaminopyrimido[4′,5′:4,5]thieno(2,3-b)quinoline]
Mitochondrial membrane potential (ΔΨm) (HL-60 cells [1]): striking fall in the membrane potential
Sub G0/G1 cells (HL-60 cells [2]; HL-60, 10 μmol/L, 48 h): 47%
Cell cycle arrest (HL-60 cells [2]; HL-60, 48 h): did not induce any cell cycle arrest
LDH release (HL-60 cells [3]; HL-60, 10 μmol/L): did not induce LDH release
LDH release (HL-60 cells [3]; HL-60, 50 μmol/L): increased the release of LDH
LDH release (HL-60 cells [3]; HL-60, 100 μmol/L): increased the release of LDH
Intracellular drug uptake (HL-60 cells [4]): dose dependent increase in the intracellular drug uptake
Increase in caspase-3 activity relative to control (caspase-3): about 2 fold
Cell cycle effect (MOLT-4 cells): cell cycle arrest was observed
Annexin V-FITC / propidium iodide staining (apoptosis) (HL-60 cells [5]): confirming the induction of apoptosis

IC50 (VEGFR1): 42 ± 12 nM
IC50 (CHK2): 81 ± 19 nM
Compound: O=C1Nc2ccccc2/C1=C1/Nc2ccccc2C1=O [Indirubin]

Compound: COC(=O)[C@@]1(O)C[C@H]2O[C@]1(C)n1c3ccccc3c3c4c(c5c6ccccc6n2c5c31)C(=O)NC4 [K252a]
IC50 (VEGFR1; [6]): 13 ± 2 nM
IC50 (CHK2; [7]): 23 ± 5 nM

IC50 (VEGFR1): 779 ± 173 nM
Compound: O=c1c(O)c(-c2cc(O)c(O)c(O)c2)oc2cc(O)cc(O)c12 [Myricetin]

IC50 (VEGFR1; [6]): 120 ± 14 nM
IC50 (CHK2; [7]): 1070 ± 210 nM
Compound: Cn1cc(C2=C(c3cn(CCCSC(=N)N)c4ccccc34)C(=O)NC2=O)c2ccccc21 [Ro318220]

IC50 (VEGFR1): 335 ± 74 nM
IC50 (CHK2): 304 ± 94 nM
Compound: Oc1c2ccccc2c2c3c(cccc13)N=N2 [SP600125]

Source: article PMC5430831 (Acta Pharmaceutica Sinica. B, 2017)
